Results as given in patent US7897588B2, “Agents and methods for enhancing bone formation” (The Regents of the University of California, priority 2003, dated 2011).

Assays:
[1] = test system: M2-10B4 mouse marrow stromal cell line; test: Alkaline phosphatase (ALP) activity assay in M2 cells; type: cell-based; conditions: for alkaline phosphatase activity: ligands used at 10 μM, control C: 18±2, ±SD; for dose and time dependence of induction of alkaline phosphatase activity: concentrations between 0.5-10 μM; for induction of alkaline phosphatase activity: osteogenic medium, 10 μM oxysterols, 3 days
Protocol: Cells: M2-10B4 mouse marrow stromal cell line obtained from American Type Culture Collection (ATCC, Rockville, Md., U.S.A.) was derived from bone marrow stromal cells of a (C57BL/6J×C3H/HeJ) F1 mouse, and support human and murine myelopoiesis in long-term cultures (as per ATCC) and have the ability to differentiate into osteoblastic and adipocytic cells. Unless specified, these cells were cultured in RPMI 1640 containing 10% heat-inactivated FBS, and supplemented with 1 mM sodium pyruvate, 100 U/ml penicillin, and 100 […] (all from Irvine Scientific).
Alkaline phosphatase activity assay: Colorimetric alkaline phosphatase (ALP) activity assay on whole cell extracts was performed as previously described.
Test 1: M2 cells at confluence were treated with control vehicle (C), or 10 μM oxysterols, in an osteogenic medium consisting of RPMI 1640 to which 10% fetal bovine serum (FBS), 50 μg/ml ascorbate and 3 mM beta-glycerophosphate (βGP) were added. After 3 days of incubation, alkaline phosphatase (ALP) activity was determined in cell homogenates by a colorimetric assay. […] FIG. 3A is a bar graph depicting the effect of various oxysterols on alkaline phosphatase activity in M2 cells.
M2 cells at confluence were treated in osteogenic medium with control vehicle (C) or a combination of 22R and 20S oxysterols, at the indicated concentrations. ALP activity was measured after 3 days as described above. […] FIG. 3B is a bar graph depicting the effect of a combination of oxysterols at various doses on alkaline phosphatase activity in M2 cells.
Test 2: M2 cells were grown in RPMI medium containing 10% fetal bovine serum (FBS). At confluence, the cells were treated in RPMI containing 5% FBS plus ascorbate at 50 μg/ml and β-glycerophosphate at 3 mM to induce osteoblastic differentiation. Adipogenic differentiation was induced by treating the cells in growth medium plus 10 ˜M troglitazone. A vehicle (C) or oxysterol treatment was applied to cells in a variety of doses (in μM): 20S-Hydroxycholesterol, 25-Hydroxycholesterol, 22R-Hydroxycholesterol; 22S-Hydroxycholesterol; 7-ketocholesterol. Cells were always treated at 90% confluence. After 4 days, alkaline phosphatase activity was determined in whole cell lysates and normalized to protein. Alternatively, MSC cultures were prepared and treated with oxysterols as described above. Cells were treated at 90% confluence with the combination of 22R-Hydroxycholesterol and 20S-Hydroxycholesterol, each at 5 uM, for 4 to 96 hours. The oxysterols where removed and fresh media without oxysterols was added for a total duration of 96 hours. Alkaline phosphatase activity was measured in whole cell extracts and normalized to protein.
M2 cells were treated at 90% confluence with vehicle (C), or oxysterols 20S-Hydroxycholesterol or 22S-Hydroxycholesterol at (0.5 μM) or (1 μM), in the absence or presence of cytochrome P450 inhibitor (SKF525A 10 μM (+)). MSC cultures were also treated at 90% confluence with vehicle (C), or 20S-Hydroxycholesterol (2 μM), in the absence or presence of cytochrome P450 […] (Benzylimidazole 50 μM) or SKF525A (10 μM). After 4 days, alkaline phosphatase activity was measured in whole cell extracts and normalized to protein.
Next, a combination of 22R and 20S oxysterols (RS, 2.5 μM each) were added in the presence or absence of SC as indicated. After 3 days, ALP activity was measured as described earlier. […] (B) M2 cells were treated as described in (A) and after 10 days matrix mineralization in cultures was quantified by a ^45Ca incorporation assay as described earlier.

M2 cells = test: Adipogenesis of troglitazone-treated M2 cells (oil Red O staining, adipocyte count); type: cell-based, mouse; conditions: M2 cells treated with Tro 10 μM, oxysterols 10 μM, 10 days
Protocol: Von Kossa and oil red O staining—Matrix mineralization in cell monolayers was detected by silver nitrate staining as previously described. Oil red O staining for detection of adipocytes was performed as previously described.
Test 1: M2 cells at 90% confluence were treated with vehicle (C), PPAR-γ activator, troglitazone 10 uM (Tro), alone or in combination with 10 μM oxysterols 20S-, 22R-, or 25S-hydroxycholesterol. After 8 days, adipocytes were identified by oil Red 0 staining and quantified by counting under a phase contrast microscope. FIG. 6A is a bar graph depicting the effect of oxysterols on reducing adipogenesis of MSC.
Test 2: (A) M2 cells at confluence were treated in RPMI containing 10% FBS with control vehicle or 10 μM troglitazone (Tro) in the absence or presence of 10 μM 20S or 22S oxysterols. After 10 days, adipocytes were visualized by oil Red O staining and quantified by light microscopy, shown in (B). Data from a representative of four experiments are shown, reported as the mean SD of quadruplicate determinations (p<0.001 for Tro vs. Tro+20S and Tro+22S). (C) M2 cells were treated at confluence with 10 μM Tro, alone or in combination with 10 μM 20S oxysterol. After 10 days, total RNA was isolated and analyzed for lipoprotein lipase (LPL), adipocyte P2 gene (aP2) or 18S rRNA expression by Northern blotting as described (Ref). Data from densitometric analysis of the Northern blot is shown in (D) as the average of duplicate samples, normalized to 18S rRNA.

adipocyte P2 gene (aP2) = test: Northern blot for adipocyte P2 gene in troglitazone-treated M2 cells; type: cell-based, mouse; conditions: 10 μM Tro, 10 μM 20S, 10 days
Protocol: (§1) RNA isolation and Northern blot analysis—Following treatment of cells under appropriate experimental conditions, total RNA was isolated using the RNA isolation kit from Stratagene (La Jolla, Calif., U.S.A.). Total RNA ([…]) was run on a 1% agarose/formaldehyde gel and transferred to Duralon-UV membranes (Strategene, Calif., U.S.A.) and cross-linked with UV light. The membranes were hybridized overnight at 60 degree C. with ^32P-labeled mouse osteocalcin cDNA probe, mouse lipoprotein lipase (LPL), mouse adipocyte protein 2 (aP2) PCR-generated probes, human 28S or 18S rRNA probes obtained from Geneka Biotechnology (Montreal, Quebec, Canada) and Maxim Biotech (San Francisco, Calif., U.S.A.), respectively. […] The extent of gene induction was determined by densitometry.
(§2) Test 2: (A) M2 cells at confluence were treated in RPMI containing 10% FBS with control vehicle or 10 μM troglitazone (Tro) in the absence or presence of 10 μM 20S or 22S oxysterols. After 10 days, adipocytes were visualized by oil Red O staining and quantified by light microscopy, shown in (B). […] After 10 days, total RNA was isolated and analyzed for lipoprotein lipase (LPL), adipocyte P2 gene (aP2) or 18S rRNA expression by Northern blotting as described (Ref). […]

lipoprotein lipase (LPL) = test: Northern blot for lipoprotein lipase in troglitazone-treated M2 cells; type: cell-based, mouse; conditions: 10 μM Tro, 10 μM 20S, 10 days
Protocol: as §1, §2

SMILES: O=S(=O)(c1ccccc1)N(CC(F)(F)F)c1ccc(C(O)(C(F)(F)F)C(F)(F)F)cc1 [TO, TO-901317]
- effect on alkaline phosphatase activity ([1]; TO at 1-10 μM): dose-dependent inhibition
- alkaline phosphatase activity [1]: 3±0.5 activity units/mg protein

SMILES: CC(C)CC[C@@H](O)[C@@H](C)[C@H]1CC[C@H]2[C@@H]3CC=C4C[C@@H](O)CC[C@]4(C)[C@H]3CC[C@]12C [22R, 22(R)-hydroxycholesterol]
- inhibition of adipogenesis (M2 cells): inhibited adipogenesis
- dose and time dependence of induction of alkaline phosphatase activity [1]: dose- and time-dependent
- alkaline phosphatase activity [1]: 45±5 activity units/mg protein
- induction of alkaline phosphatase activity [1]: induced

SMILES: CC(C)CCC[C@](C)(O)[C@H]1CC[C@H]2[C@@H]3CC=C4C[C@@H](O)CC[C@]4(C)[C@H]3CC[C@@]21C [20S, 20(S)-hydroxycholesterol]
- inhibition of adipogenesis (M2 cells): inhibited adipogenesis
- expression of adipocyte P2 gene (aP2) (adipocyte P2 gene (aP2)): inhibition
- dose and time dependence of induction of alkaline phosphatase activity [1]: dose- and time-dependent
- alkaline phosphatase activity [1]: 140±12 activity units/mg protein
- induction of alkaline phosphatase activity [1]: induced
- expression of lipoprotein lipase (LPL) (lipoprotein lipase (LPL)): inhibition

SMILES: CC(C)CC[C@H](O)[C@@H](C)[C@H]1CC[C@H]2[C@@H]3CC=C4C[C@@H](O)CC[C@]4(C)[C@H]3CC[C@]12C [22S, 22(S)-hydroxycholesterol]
- inhibition of adipogenesis (M2 cells): inhibited adipogenesis
- dose and time dependence of induction of alkaline phosphatase activity [1]: dose- and time-dependent
- induction of alkaline phosphatase activity [1]: induced
